Results taken from patent US11478471B2, “Methods and compositions for treating diabetes, metabolic syndrome and other conditions” (priority 2005, dated 2022).
pIC50: −log10 of the molar value. ≈ marks a conversion by molar mass, not a printed value. Entries after “also recorded” stand apart in the source; their conditions may differ. Like-named read-outs stand apart in the source and are kept apart here.

Tests used:
plasma corticosterone = experiment: Plasma corticosterone in rats after oral dosing (ELISA); assay type: in vivo, Sprague Dawley rats; conditions: for effect on plasma corticosterone (FIG. 1): 200 mg/kg oral, vs vehicle; for Corticosteroid Levels (mean ± SEM): 4 h after gavage
Method: To generate the results shown in FIG. 1, five groups (eight per group) of rats were used. The rats were maintained on a 14/10 hour light/dark cycle and allowed free access to food and water. Each rat was dosed (200 mg drug/kg body weight) via a gastric tube. […] All of the rats were dosed between 2.00 and 3.00 pm and were sacrificed four hours later (between 6.00 and 7.00 pm). Plasma was prepared and the concentration of corticosterone determined by an enzyme linked immuno assay (ELISA). In rats, the predominant active glucocorticoid is corticosterone; in humans, the predominant active glucucorticoid is the closely related molecule cortisol.
The rats were maintained and dosed as described above. Plasma was prepared and the concentration of corticosterone in the plasma determined by ELISA.
(§1) The rats were maintained as described above; the drugs were suspended in olive oil, and each rat was dosed once via gastric tube to achieve a dose of 200 mg/kg. All of the rats were dosed at a specific time so that all terminations occurred between 6 and 7 pm. […] Following sacrifice, plasma was prepared, and the concentration of corticosterone in the plasma was determined by ELISA. In the same plasma samples, total cholesterol levels were also determined.
In the Table, corticosterone levels (mean±SEM; ng/mL) were determined four hours after oral gavage of the indicated drug (N=10/group). There was a single control group (dosed with vehicle).
Corticosterone levels (mean±SEM; ng/mL) were determined at the indicated times after oral gavage of the indicated drug at 200 mg/kg. […] The means of the vehicle treated groups are used as the time zero control point.

succinate dehydrogenase = molecular target: T1, succinate dehydrogenase (Rattus norvegicus, UniProt Q920L2); conditions: read-out: in vitro IC50, succinate dehydrogenase; cited from earlier work
T1 construct: host or cells: isolated rat liver mitochondria (from the cited title)
T1 sequence (Q920L2 35-656): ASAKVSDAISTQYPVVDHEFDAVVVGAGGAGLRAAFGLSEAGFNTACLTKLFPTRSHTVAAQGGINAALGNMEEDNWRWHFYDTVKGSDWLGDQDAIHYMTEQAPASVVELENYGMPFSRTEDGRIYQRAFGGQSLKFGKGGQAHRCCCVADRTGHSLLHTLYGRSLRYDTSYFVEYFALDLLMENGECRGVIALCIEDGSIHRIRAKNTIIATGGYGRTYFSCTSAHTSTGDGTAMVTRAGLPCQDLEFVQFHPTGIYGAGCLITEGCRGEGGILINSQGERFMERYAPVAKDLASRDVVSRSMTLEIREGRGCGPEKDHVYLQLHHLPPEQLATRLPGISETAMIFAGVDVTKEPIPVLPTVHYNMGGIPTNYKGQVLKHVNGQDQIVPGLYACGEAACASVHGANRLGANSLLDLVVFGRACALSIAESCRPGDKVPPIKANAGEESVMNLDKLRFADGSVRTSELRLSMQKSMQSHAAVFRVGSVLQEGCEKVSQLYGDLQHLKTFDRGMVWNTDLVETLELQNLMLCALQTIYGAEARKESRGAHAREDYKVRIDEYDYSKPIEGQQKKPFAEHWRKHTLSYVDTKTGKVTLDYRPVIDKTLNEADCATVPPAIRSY
T1 sequence (P21913 31-282 partner): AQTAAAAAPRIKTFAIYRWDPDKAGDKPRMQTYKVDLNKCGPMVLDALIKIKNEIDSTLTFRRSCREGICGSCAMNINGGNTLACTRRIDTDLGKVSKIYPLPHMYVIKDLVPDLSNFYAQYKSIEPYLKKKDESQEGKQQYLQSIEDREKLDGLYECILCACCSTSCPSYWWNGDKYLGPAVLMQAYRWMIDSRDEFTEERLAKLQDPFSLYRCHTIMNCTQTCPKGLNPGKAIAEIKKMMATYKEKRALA
T1 sequence (Q641Z9 30-169 partner limits assumed): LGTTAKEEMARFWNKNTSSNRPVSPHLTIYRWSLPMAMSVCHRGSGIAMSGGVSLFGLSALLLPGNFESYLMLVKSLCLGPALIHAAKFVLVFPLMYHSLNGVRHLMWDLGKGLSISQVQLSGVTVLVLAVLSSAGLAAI
T1 sequence (Q6PCT8 57-159 partner): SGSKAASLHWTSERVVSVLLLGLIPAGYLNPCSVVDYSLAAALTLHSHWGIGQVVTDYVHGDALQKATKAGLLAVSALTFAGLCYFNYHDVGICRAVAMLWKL

P450 3A = conditions: read-out: IC50, progesterone 6β hydroxylase (3A); Rotstein et al. 1992; cited from earlier work
P450 4A = conditions: read-out: IC50, lauric acid hydroxylase (4A); Rotstein et al. 1992; cited from earlier work
Candida kefyr = experiment: Antifungal MIC; assay type: cell-based; conditions: Kluyveromyces marxianus, DSM11954; DSM strain 11954, 48 h
[1] = system: P450 2B1, 2B2, 1A1, 2C11, 3A; conditions: read-out: IC50, progesterone 16α hydroxylase (2B1, 2B2, 1A1, 2C11, 3A); Rotstein et al. 1992; cited from earlier work
Candida parapsilosis = experiment: Antifungal MIC; assay type: cell-based; conditions: Lodderomyces parapsilosis, read-out: MIC
Saccharomyces cerevisiae = experiment: Antifungal MIC; assay type: cell-based; conditions: DSM01333, DSM strain 01333, 48 h
[2] = system: CYP7A (cholesterol 7α hydroxylase); experiment: Inhibition of CYP7A, cholesterol 7α-hydroxylase activity (Rotstein et al. 1992); conditions: assuming intrahepatic concentration approximately 20% of total plasma concentration; listed as 2R,4S enantiomer
P450 2C6 = P450 2C6 (Rattus norvegicus, UniProt P05178); conditions: Rotstein et al. 1992; read-out: IC50, progesterone 21 hydroxylase (2C6); cited from earlier work
Sequence of P450 2C6 (P05178 whole entry): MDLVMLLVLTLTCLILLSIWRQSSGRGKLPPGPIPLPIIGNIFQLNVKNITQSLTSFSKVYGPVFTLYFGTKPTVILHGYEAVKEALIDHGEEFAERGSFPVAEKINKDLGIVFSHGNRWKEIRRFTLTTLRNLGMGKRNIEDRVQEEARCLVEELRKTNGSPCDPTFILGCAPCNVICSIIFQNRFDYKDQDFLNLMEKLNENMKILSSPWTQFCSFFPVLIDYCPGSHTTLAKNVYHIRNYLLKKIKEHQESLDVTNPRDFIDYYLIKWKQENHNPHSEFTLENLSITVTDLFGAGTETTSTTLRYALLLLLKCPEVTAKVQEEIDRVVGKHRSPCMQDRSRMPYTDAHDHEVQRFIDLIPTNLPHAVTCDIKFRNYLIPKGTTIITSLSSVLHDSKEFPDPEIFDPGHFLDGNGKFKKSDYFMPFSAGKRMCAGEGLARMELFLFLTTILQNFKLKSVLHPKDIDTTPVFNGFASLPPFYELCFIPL

Candida glabrata = experiment: Antifungal MIC; assay type: cell-based; conditions: Nakaseomyces glabratus, read-out: MIC
Issatchenkia orientalis = experiment: Antifungal MIC; assay type: cell-based; conditions: Pichia kudriavzevii, read-out: MIC
[3] = humans, cited from earlier work
Candida albicans = experiment: Antifungal MIC; assay type: cell-based; conditions: read-out: MIC
Cryptococcus neoformans = experiment: Antifungal MIC; assay type: cell-based
cholesterol levels = experiment: Cholesterol levels in rats after oral dosing; assay type: in vivo, Sprague Dawley rats; conditions: single oral 200 mg/kg
Method: as §1

Candida tropicalis = experiment: Antifungal MIC; assay type: cell-based
testosterone levels = experiment: Testosterone levels in rats after oral dosing; assay type: in vivo, Sprague Dawley rats; conditions: for Testosterone levels (mean ± SEM): 4 h after gavage
From the text: There was a single control group (dosed with vehicle).
The means of the vehicle treated groups are used as the time zero control point.

Candida guilliermondii = experiment: Antifungal MIC; assay type: cell-based; conditions: Meyerozyma guilliermondii, DSM11947; DSM strain 11947, 48 h
[4] = following fifth 200 mg dose of racemic ketoconazole (every twelve hours)
[5] = following first 200 mg dose of racemic ketoconazole

CC(=O)N1CCN(c2ccc(OCC3COC(Cn4ccnc4)(c4ccc(Cl)cc4Cl)O3)cc2)CC1 (stereo not drawn) [2S45]
effect on plasma corticosterone (FIG. 1) (plasma corticosterone; 4 h): little effect

Clc1ccc(C2(Cn3ccnc3)OCC(COc3ccc(N4CCNCC4)cc3)O2)c(Cl)c1 (stereo not drawn) [DAK, deacetylated ketoconazole]
pIC50 (succinate dehydrogenase): 3.46

CC(=O)N1CCN(c2ccc(OC[C@H]3CO[C@](Cn4ccnc4)(c4ccc(Cl)cc4Cl)O3)cc2)CC1 [2R,4S]
pIC50 (P450 3A): 6.10 | pIC50 (P450 4A): > 4.00 | MIC (Candida kefyr): 0.03 µg/mL (≈ 0.0565 µM) | pIC50 [1]: 4.16 | MIC (Candida parapsilosis; DSM05784, DSM strain 05784, 48 h): 0.06 µg/mL (≈ 0.113 µM) | MIC (Candida parapsilosis; DSM11224, DSM strain 11224, 48 h): 0.06 µg/mL (≈ 0.113 µM) | MIC (Saccharomyces cerevisiae): 0.25 µg/mL (≈ 0.47 µM) | total plasma concentration required to inhibit intrahepatic CYP7A [2]: approximately 1 microM; also recorded: approximately 0.5 microg/mL | pIC50 (P450 2C6): 4.95 | MIC (Candida glabrata; DSM11226, DSM strain 11226, 48 h): 0.5 µg/mL (≈ 0.941 µM) | MIC (Candida glabrata; DSM11950, DSM strain 11950, 48 h): 0.25 µg/mL (≈ 0.47 µM) | MIC (Issatchenkia orientalis; DSM11956, DSM strain 11956, 48 h): 0.5 µg/mL (≈ 0.941 µM) | MIC (Issatchenkia orientalis; DSM11958, DSM strain 11958, 48 h): 2 µg/mL (≈ 3.76 µM) | AUC 0-12 [3, 4]: 1543 ± 231 µg·min/mL | Cmax [3, 4]: 4770 ± 550 ng/mL | T ½ [3, 4]: 2.63 ± 0.317 h | AUC 0-12 [3, 5]: 820 ± 142 µg·min/mL | Cmax [3, 5]: 3400 ± 440 ng/mL | T ½ [3, 5]: 1.62 ± 0.13 h | MIC (Candida albicans; DSM11225, DSM strain 11225, 48 h): < 0.015 µg/mL | MIC (Candida albicans; DSM11943, DSM strain 11943, 48 h): < 0.015 µg/mL | MIC (Candida albicans; DSM11944, DSM strain 11944, 48 h): < 0.015 µg/mL | MIC (Candida albicans; DSM11945, DSM strain 11945, 48 h): 0.03 µg/mL (≈ 0.0565 µM) | MIC (Candida albicans; DSM11948, DSM strain 11948, 48 h): < 0.015 µg/mL | MIC (Candida albicans; DSM11949, DSM strain 11949, 48 h): 0.25 µg/mL (≈ 0.47 µM) | MIC (Candida albicans; strain 98-St-00799, 48 h): < 0.015 µg/mL | MIC (Cryptococcus neoformans; DSM11959, DSM strain 11959, 48 h): 0.03 µg/mL (≈ 0.0565 µM) | MIC (Cryptococcus neoformans; DSM11960, DSM strain 11960, 48 h): 0.125 µg/mL (≈ 0.235 µM) | effect on plasma corticosterone (FIG. 1) (plasma corticosterone; 4 h): reduce corticosterone | Corticosteroid Levels (mean ± SEM) (plasma corticosterone; single oral 50 mg/kg): 226 ± 30.1 ng/mL | Corticosteroid Levels (mean ± SEM) (plasma corticosterone; single oral 100 mg/kg): 196 ± 17.2 ng/mL | Corticosteroid Levels (mean ± SEM), time course (plasma corticosterone; single oral 200 mg/kg, 4 h): 191 ± 14 ng/mL | Corticosteroid Levels (mean ± SEM) (plasma corticosterone; single oral 200 mg/kg): 217 ± 25.8 ng/mL | Corticosteroid Levels (mean ± SEM), time course (plasma corticosterone; single oral 200 mg/kg, 8 h): 206 ± 13 ng/mL | Corticosteroid Levels (mean ± SEM), time course (plasma corticosterone; single oral 200 mg/kg, 12 h): 175 ± 9 ng/mL | Corticosteroid Levels (mean ± SEM), time course (plasma corticosterone; single oral 200 mg/kg, 16 h): 171 ± 9 ng/mL | Corticosteroid Levels (mean ± SEM), time course (plasma corticosterone; single oral 200 mg/kg, 20 h): 169 ± 7 ng/mL | Corticosteroid Levels (mean ± SEM), time course (plasma corticosterone; single oral 200 mg/kg, 24 h): 182 ± 10 ng/mL | Corticosteroid Levels (mean ± SEM) (plasma corticosterone; single oral 400 mg/kg): 192 ± 11.6 ng/mL | Corticosteroid Levels (mean ± SEM) (plasma corticosterone; single oral 600 mg/kg): 167 ± 6.8 ng/mL | Cholesterol Levels (mean ± SEM) (cholesterol levels; 4 h): 85.1 ± 7 mg/dL | Cholesterol Levels (mean ± SEM) (cholesterol levels; 8 h): 85.1 ± 5.4 mg/dL | Cholesterol Levels (mean ± SEM) (cholesterol levels; 12 h): 77.3 ± 1.9 mg/dL | Cholesterol Levels (mean ± SEM) (cholesterol levels; 16 h): 77.3 ± 4.6 mg/dL | Cholesterol Levels (mean ± SEM) (cholesterol levels; 20 h): 69.6 ± 2.7 mg/dL | Cholesterol Levels (mean ± SEM) (cholesterol levels; 24 h): 69.6 ± 1.5 mg/dL | MIC (Candida tropicalis; DSM11951, 48 h): 0.125 µg/mL (≈ 0.235 µM) | MIC (Candida tropicalis; DSM11952, DSM strain 11952, 48 h, read-out: MIC): 4 µg/mL (≈ 7.53 µM) | MIC (Candida tropicalis; DSM11953, 48 h): 0.125 µg/mL (≈ 0.235 µM) | Testosterone levels (mean ± SEM) (testosterone levels; single oral 50 mg/kg): 2.5 ± 0.5 nmol/L | Testosterone levels (mean ± SEM) (testosterone levels; single oral 100 mg/kg): 1.3 ± 0.2 nmol/L | Testosterone levels (mean ± SEM), time course (testosterone levels; single oral 200 mg/kg, 4 h): 3.4 ± 0.5 nmol/L | Testosterone levels (mean ± SEM) (testosterone levels; single oral 200 mg/kg): 1.4 ± 0.4 nmol/L | Testosterone levels (mean ± SEM), time course (testosterone levels; single oral 200 mg/kg, 8 h): 8.6 ± 2.0 nmol/L | Testosterone levels (mean ± SEM), time course (testosterone levels; single oral 200 mg/kg, 12 h): 5.6 ± 1.1 nmol/L | Testosterone levels (mean ± SEM), time course (testosterone levels; single oral 200 mg/kg, 16 h): 5.5 ± 0.9 nmol/L | Testosterone levels (mean ± SEM), time course (testosterone levels; single oral 200 mg/kg, 20 h): 5.2 ± 1.1 nmol/L | Testosterone levels (mean ± SEM), time course (testosterone levels; single oral 200 mg/kg, 24 h): 6.0 ± 1.0 nmol/L | Testosterone levels (mean ± SEM) (testosterone levels; single oral 400 mg/kg): 0.7 ± 0.2 nmol/L | Testosterone levels (mean ± SEM) (testosterone levels; single oral 600 mg/kg): 1.6 ± 0.3 nmol/L | MIC (Candida guilliermondii): 0.25 µg/mL (≈ 0.47 µM)
